# Test system: Japanese type 2 diabetic subjects
# Assay: Phase 2b dose-ranging placebo-controlled 24-week study in Japanese type 2 diabetic subjects
# Format: in vivo, human
# Details: for FPG LSM difference vs baseline / FPG LSM difference vs placebo: 24 weeks, FAS; for responder rate (subjects reaching HbA1c≤7%): end of 24-week treatment (placebo 8.2%)
# Procedure: A Dose-Ranging, Randomized, Double-Blind, Placebo-Controlled, Parallel-Group, Multi-Center Study of the Efficacy and Safety of 3 Doses of Imeglimin after 24 Weeks of Treatment in Japanese Type 2 Diabetic Subjects
# In this study, a total of 299 subjects with T2DM received either imeglimin at one of the 3 doses (500, 1000 and 1500 mg bid) or placebo. The primary objective of this study was to assess the dose-response of imeglimin at 3 doses (500, 1000 and 1500 mg bid) compared to placebo in male and female subjects with T2DM after 24 weeks of treatment, using glycosylated hemoglobin (HbA1c) as the primary endpoint. Inclusion Criteria: subjects have an eGFR of ≥50 mL/min/1.73 m^2 at screening and >=45 at pre randomization visit. A total of 299 subjects were randomized 1:1:1:1 to one of the 4 study arms, with 268 subjects completing the study.
# Percentage of responders was defined as the percentage of subjects who reached a value of HbA1c≤7% at the end of the 24-week double-blind treatment period. The analysis was performed using the FAS for subjects with an HbA1c value greater than 7.0% at baseline.
# In a post-hoc analysis, efficacy and safety/tolerability profile was investigated in patients depending on their renal function (CKD 1=eGFR≥90 mL/min/1.73 m^2, CKD2=60≤eGFR<90 mL/min/1.73 m^2, CKD3A=45≤eGFR<60 mL/min/1.73 m^2). 299 patients were randomized 74% of the patients had CKD2, 14% had CKD1, and 12% CKD3A, respectively. The primary endpoint was met with a statistically significant dose-dependent placebo subtracted decrease in HbA1c at the 3 doses with the 2 top doses of 1,000 and 1,500 mg bid reaching an HbA1c decrease of −0.94% and −1.00% respectively (Table 5). […] There were no major differences in the incidence of AE, SAE or AE leading to treatment discontinuation.
# [1] = CKD Stage 2 (eGFR = 60-90 mL/min/1.73 m^2), 500 mg BID
# [2] = CKD Stage 2 (eGFR = 60-90 mL/min/1.73 m^2), 500 mg BID, N 56
# [3] = CKD Stage 2 (eGFR = 60-90 mL/min/1.73 m^2), 1000 mg BID
# [4] = CKD Stage 2 (eGFR = 60-90 mL/min/1.73 m^2), 1000 mg BID, N 57
# [5] = CKD Stage 2 (eGFR = 60-90 mL/min/1.73 m^2), 1500 mg BID
# [6] = CKD Stage 2 (eGFR = 60-90 mL/min/1.73 m^2), 1500 mg BID, N 51
# [7] = CKD Stage 3a (eGFR < 60 mL/min/1.73 m^2), 500 mg BID
# [8] = CKD Stage 3a (eGFR < 60 mL/min/1.73 m^2), 500 mg BID, N 10
# [9] = CKD Stage 3a (eGFR < 60 mL/min/1.73 m^2), 1000 mg BID
smiles,measurement,setting,value
"C[C@H]1N=C(N(C)C)N=C(N)N1 [imeglimin, (6R)—N^2, N^2,6-trimethyl-3,6-dihydro-1,3,5-triazine-2,4-diamine]",TEAE leading to discontinuation,500 mg (placebo 13.3%),2.7%
same,FPG LSM difference vs baseline,500 mg bid,8.0 mg/dL
same,FPG LSM difference vs placebo,500 mg bid,-8.6 mg/dL
same,placebo-adjusted change in HbA1c,"500 mg bid, baseline HbA1c <8%",−0.47%
same,placebo-adjusted change in HbA1c,"500 mg bid, baseline HbA1c ≥8%",−0.58%
same,TEAE leading to discontinuation,1000 mg (placebo 13.3%),6.8%
same,FPG LSM difference vs baseline,1000 mg bid,-8.0 mg/dL
same,FPG LSM difference vs placebo,1000 mg bid,-24.6 mg/dL
same,placebo-adjusted change in HbA1c,"1000 mg bid, baseline HbA1c <8%",−0.93%
same,placebo-adjusted change in HbA1c,"1000 mg bid, baseline HbA1c ≥8%",−0.90%
same,responder rate (subjects reaching HbA1c≤7%),1000 mg bid,33.3%
same,TEAE leading to discontinuation,1500 mg (placebo 13.3%),6.7%
same,subjects requiring a rescue therapy due to poor glycemic control,1500 mg bid (placebo 10.7%),no subjects requiring rescue therapy
same,FPG LSM difference vs baseline,1500 mg bid,-8.0 mg/dL
same,FPG LSM difference vs placebo,1500 mg bid,-24.6 mg/dL
same,placebo-adjusted change in HbA1c,"1500 mg bid, baseline HbA1c <8%",−0.82%
same,placebo-adjusted change in HbA1c,"1500 mg bid, baseline HbA1c ≥8%",−1.2%
same,responder rate (subjects reaching HbA1c≤7%),1500 mg bid,32.9%
same,Decrease in FPG (placebo-adjusted),2 top doses of 1000 and 1500 mg bid,1.37 mmol/L
same,SAE or AE leading to discontinuation,"CKD3a subgroup, post-hoc analysis",No SAE or AE leading to discontinuation were observed
same,"FPG LSM Difference vs. Placebo, Week 24",[1],-14.2 mg/dL
same,"HbA1c LSM Difference vs. Placebo (SEM), Week 24",[1],−0.60%
same,"Change in FPG from baseline, Week 24 LS Mean",[2],5.8 mg/dL
same,"Change in HbA1c from baseline, Week 24 LS Mean (SEM)",[2],−0.08 (0.109) %
same,"HbA1c LSM Difference vs. Placebo (SEM), Week 24","CKD Stage 2 (eGFR = 60-90 mL/min/1.73 m^2), 500 mg BID, listed as Imeglimin",−0.60 (0.154) %
same,"FPG LSM Difference vs. Placebo, Week 24",[3],-26.5 mg/dL
same,"HbA1c LSM Difference vs. Placebo (SEM), Week 24",[3],−1.03%
same,"Change in FPG from baseline, Week 24 LS Mean",[4],-6.5 mg/dL
same,"Change in HbA1c from baseline, Week 24 LS Mean (SEM)",[4],−0.51 (0.110) %
same,"HbA1c LSM Difference vs. Placebo (SEM), Week 24","CKD Stage 2 (eGFR = 60-90 mL/min/1.73 m^2), 1000 mg BID, listed as Imeglimin",−1.03 (0.155) %
same,"FPG LSM Difference vs. Placebo, Week 24",[5],-33.0 mg/dL
same,"HbA1c LSM Difference vs. Placebo (SEM), Week 24",[5],−1.11%
same,"Change in FPG from baseline, Week 24 LS Mean",[6],-12.9 mg/dL
same,"Change in HbA1c from baseline, Week 24 LS Mean (SEM)",[6],−0.58 (0.117) %
same,"HbA1c LSM Difference vs. Placebo (SEM), Week 24","CKD Stage 2 (eGFR = 60-90 mL/min/1.73 m^2), 1500 mg BID, listed as Imeglimin",−1.11 (0.160) %
same,"FPG LSM Difference vs. Placebo, Week 24",[7],-6.7 mg/dL
same,"HbA1c LSM Difference vs. Placebo (SEM), Week 24",[7],−0.54%
same,"Change in FPG from baseline, Week 24 LS Mean",[8],1.7 mg/dL
same,"Change in HbA1c from baseline, Week 24 LS Mean (SEM)",[8],−0.32 (0.240) %
same,"HbA1c LSM Difference vs. Placebo (SEM), Week 24","CKD Stage 3a (eGFR < 60 mL/min/1.73 m^2), 500 mg BID, listed as Imeglimin",−0.54 (0.336) %
same,"FPG LSM Difference vs. Placebo, Week 24",[9],-11.2 mg/dL
same,"HbA1c LSM Difference vs. Placebo (SEM), Week 24",[9],−0.44%
same,"Change in FPG from baseline, Week 24 LS Mean","CKD Stage 3a (eGFR < 60 mL/min/1.73 m^2), 1000 mg BID, N 7",-2.8 mg/dL

# Source: patent publication US12036226B2, “Methods of treating subjects having diabetes with chronic kidney disease” (Poxel SA, priority 2018, dated 2024)
